Series [1] has as its target T1, PARP1 (Homo sapiens, UniProt P09874).
T1 construct: purchased BPS Bioscience, San Diego, CA
The note with it: cited from earlier work.

Series [2] has as its system PARP1/2. In words: In vitro binding kinetics by recovery of PARPi-FL binding (flow cytometry). The series is classed as cell-based, human. Here is the method: (§1) Cells were then treated with fluorescent imaging agent PARPi-FL and either imaged via confocal microscopy or measured via flow cytometry. […] Then, cells were trypsinized, subjected to flow cytometry and analyzed for the relative PARPi-FL fluorescence signal. […] Error bars represent the SD of three independent experiments with three parallels each
(§2) After the respective treatment/staining, which is described below for the different experiments, cells were washed in PBS, trypsinized, washed with flow buffer (1% BSA (w/v) in PBS), transferred to 5 mL flow cytometry tubes through the 40 µm cell strainer cap and left on ice until measurement in the flow cytometer (Fortessa II). Raw data were processed in FlowJo software in order to calculate PARPi-FL uptake per cell. Dead cells were excluded by eliminating DAPI positive cells from the analysis (Supplementary Fig. 8). Cell clumps and debris were eliminated using the corresponding gates (forward and side scatter) for the unstained cell population. PARPi-FL fluorescence was imaged in the FITC channel against side scatter (area).
We furthermore determined the duration of PARPi binding to their target site. […] Then, cells were subjected to flow cytometry as described above. […] We determined the duration of binding of the PARPi indirectly by calculating the recovery of PARP-FL binding with increasing times between PARPi and PARPi-FL treatment. Decay curves were calculated with Prism using two phase decay least squares regression.
(Flow cytometry measures light scatter and fluorescence of single cells or particles in a stream.)

Series [3] deals with PARP1/2. Description: Blocking of PARPi-FL uptake by PARP inhibitors (confocal microscopy, flow cytometry). To be noted: JHU-LX22 cells; for Blocking of PARPi-FL uptake: pretreatment with PARP inhibitor 25 min, then PARPi-FL 15 min; for Blocking of PARPi-FL uptake / target engagement, in words: pretreatment with inhibitor, then PARPi-FL. It is filed as cell-based, human. As to the method: as §1
We conducted confocal laser scanning microscopy to visualize the extent of intracellular blocking of PARPi-FL uptake by different PARPi. […] PARPi-FL was removed and cells were washed in fresh medium for 10 min. Next, cells were treated with 4% Paraformaldehyde (PFA) for 8 min on ice to ensure fixation. […] PARPi-FL intensity was determined by measuring the PARPi-FL fluorescence intensity in all nuclei, which were thresholded using Hoechst staining.
as §2
Controls (cells incubated with medium instead of a PARP inhibitor) served as reference value and their PARPi-FL signal was defined as 100%.
To quantify the extent of blocking of PARPi-FL uptake by different PARPi, we quantified the intracellular PARPi-FL uptake in JHU-LX22 cells after incubation with PARP inhibitors.

The test system of series [4] is JHU-LX22 cells. Description: Cytotoxicity, Alamar Blue assay. To be noted: 24-96 h. It is filed as cell-based, human. As to the method:
[…]. Cells were plated in 96-well plates (black, clear-bottom, Corning Incorporated) at a density of 5,000 cells/well and allowed them to attach for 24 h. All compounds were prepared as 10 mM stock solutions in DMSO and further diluted in media. Cells were treated with 0, 2, 5, and 10 µM (final solutions containing 1% DMSO) of each compound for 24, 48, 72 and 96 h. Then, media was removed and Alamar Blue reagent was added to each well. Plates were incubated at 37 °C for 4 h under protection from direct light. Fluorescence was read (bottom-read mode) using an excitation wavelength of 570 nm and an emission wavelength of 585 nm on a SpectraMax M5 microplate reader (Molecular Devices, Sunnyvale, CA, USA). The average reading values were analyzed by subtracting the background readings (wells with Alamar Blue but without cells) and compared against the untreated controls of each plate (defined as 100% viability) to determine the percentage of living cells. The experiment was carried out in three biological replicates with four parallels of each compound.
Supplementary Figure 9 | In vitro toxicity of the tested PARP inhibitors and imaging tracers on JHU-LX22 cells. (a) Assessment of viable cell population during flow cytometry after a 2 hour incubation time of several PARP inhibitors at concentrations between 0 and 5 µM. (b) Cell viability determination using Alamar Blue assays. Cells were incubated with 0, 0.2, 2, 5 or 10 µM of each compound for 24, 48, 72 or 96 h and cell viability was assessed using the Alamar Blue assay. (c) IC values derived from Alamar Blue assays at 72 h and 96 h.
Viability data represent means from three independent experiments, each with four parallels of each sample. Error bars represent the standard error (SEM). […]
Background: The colour change of resazurin is a common sign of viable cells or microbes.

The test system of series [5] is PARP1/2. To be noted: olaparib 50 mg/kg, talazoparib 0.3 mg/kg i.v., 60 min between drug and tracer.
Description: (§3) All PET/CT images (n = 90) were acquired on an Inveon PET/CT (Siemens) and reconstructed scans were analyzed using the Inveon Research Workplace Software (Siemens). To acquire PET/CT images, animals were anesthetized with 2% isoflurane and positioned on the scanner bed. […] PET data were collected for 5–10 min, followed by CT.
Activity concentration was quantified by averaging the mean values taken from VOIs drawn over the entire tumor as it appeared in the CT and portrayed as a mean %ID/g ± SD.
Series [6] deals with PARP1/2. The note with it: for Blocking of [18F]PARPi tumor uptake (target engagement): 30 min before tracer, PET 2 h later. An excerpt:
Fig. 7 Variable dose blocking.
The control group received no therapeutic inhibitor.

The test system of series [7] is PARylation in LX22 cells. In words: PARylation inhibition assay (western blot for PAR). It is filed as cell-based, human. The note with it: 0.1 µM, 30 min incubation. Here is the method:
Whole cell lysates were prepared by incubating cells with RIPA Buffer with Triton X (BP-140, Boston BioProducts) containing Protease Inhibitor (Complete EASYpacks, Sigma-Aldrich) for 30 min on ice, followed by 30 min centrifugation at 10,000 × g for 30 min at 4 °C. Protein concentration of lysates was determined using a Bicinchoninic acid (BCA) assay kit (#23225, Pierce) and following the manufacturers instructions. SDS gel electrophoresis and immunoblotting were carried out following standard procedures. Signal detection was carried out using chemiluminescent substrate (#34077, Thermo Scientific). Densitometric analysis of western blots was carried out using ImageJ (NIH). To detect PAR, we used a rabbit polyclonal anti-PAR polymer antibody (1:1000 dilution, #4336-BPC-100, Trevigen) followed by a goat anti-rabbit IgG-HRP secondary antibody (1:10,000 dilution, sc-2004, SantaCruz). B-actin was used as loading control (1:1000 dilution, A3854, Sigma-Aldrich) and was stained after stripping the blot for 30 min at room temperature using stripping buffer (Amresco).
Supplementary Figure 3 | PARylation inhibition assay.
PARPi-FL and [18F]PARPi quantify PARP inhibition, we compared their ability to inhibit PARylation
in comparison with olaparib.
inhibition. At 1 µM, the PAR signal for all three compounds is nearly completely eliminated.
A general note: In western blotting, separated proteins are transferred to a membrane and probed.

Series [8] concerns PARP1/2. In words: Ex vivo autoradiography of target engagement. The note with it: olaparib 50 mg/kg, talazoparib 0.3 mg/kg, 30 min prior to tracer; tumor collected 2 h post tracer.
Description: Sections from 3 different tumor areas from each tumor (n = 3/group) were exposed to an autoradiography plate overnight and read the next day. ImageJ was used to quantify the signal intensity of each tissue. Adjacent sections were used for PARP1 IHC and H&E staining to confirm tissue identity and PARP1 expression.
Series [9] concerns JHU-LX48 SCLC PDX. Description: PET/CT imaging agent kinetics. It is filed as in vivo, NSG mice. To be noted: i.v., JHU-LX48 PDX mice. The text has this:
Error bars represent the SD
Different mice were used for each group to eliminate, as much as possible, the influence of anesthesia on tracer distribution.

Series [10] has as its target T2, PARP2 (Homo sapiens, UniProt Q9UGN5).
T2 construct: purchased BPS Bioscience, San Diego, CA
Description: PARP2 IC50 assay (BPS Bioscience, Strep-HRP, histone substrate). To be noted: footnote a: see Supplementary Fig. 2. The series is classed as biochemical. Here is the method: Assays were performed by BPS Bioscience, San Diego, CA. […] Data was reported by BPS a`s % enzyme activity curve from 0.03 nM or 0.1 nM to 1000 nM.

In series [11] the test system is JHU-LX48 SCLC PDX. In words: PET/CT tumor size study.
Description: PET/CT imaging was performed once a week over 8 consecutive weeks starting one week after xenografting. a Representative MIPs from the same mouse over 8 weeks. b Quantification (n = 6) of mean uptake (top) and max uptake (bottom) of the PET images grouped by tumor size.
as §3
This was continued for 8 consecutive weeks until mice were sacrificed to avoid surpassing a tumor size limit of 1500 mm^3. Activity concentration was quantified by averaging the mean or max values taken from VOIs drawn over the entire tumor as it appeared in the CT and portrayed as mean and max %ID/g ± SD.
Setting [12] is: JHU-LX22 cells, 0.2 µM inhibitor 25 min, washed, 0-48 h post-incubation, two phase decay fit.

Here are results for seven compounds from paper PMC5766608, “Target engagement imaging of PARP inhibitors in small-cell lung cancer” (Nature Communications, 2018).

Where two headings read alike, the source gives them in different places.

T1 sequence (P09874 whole entry): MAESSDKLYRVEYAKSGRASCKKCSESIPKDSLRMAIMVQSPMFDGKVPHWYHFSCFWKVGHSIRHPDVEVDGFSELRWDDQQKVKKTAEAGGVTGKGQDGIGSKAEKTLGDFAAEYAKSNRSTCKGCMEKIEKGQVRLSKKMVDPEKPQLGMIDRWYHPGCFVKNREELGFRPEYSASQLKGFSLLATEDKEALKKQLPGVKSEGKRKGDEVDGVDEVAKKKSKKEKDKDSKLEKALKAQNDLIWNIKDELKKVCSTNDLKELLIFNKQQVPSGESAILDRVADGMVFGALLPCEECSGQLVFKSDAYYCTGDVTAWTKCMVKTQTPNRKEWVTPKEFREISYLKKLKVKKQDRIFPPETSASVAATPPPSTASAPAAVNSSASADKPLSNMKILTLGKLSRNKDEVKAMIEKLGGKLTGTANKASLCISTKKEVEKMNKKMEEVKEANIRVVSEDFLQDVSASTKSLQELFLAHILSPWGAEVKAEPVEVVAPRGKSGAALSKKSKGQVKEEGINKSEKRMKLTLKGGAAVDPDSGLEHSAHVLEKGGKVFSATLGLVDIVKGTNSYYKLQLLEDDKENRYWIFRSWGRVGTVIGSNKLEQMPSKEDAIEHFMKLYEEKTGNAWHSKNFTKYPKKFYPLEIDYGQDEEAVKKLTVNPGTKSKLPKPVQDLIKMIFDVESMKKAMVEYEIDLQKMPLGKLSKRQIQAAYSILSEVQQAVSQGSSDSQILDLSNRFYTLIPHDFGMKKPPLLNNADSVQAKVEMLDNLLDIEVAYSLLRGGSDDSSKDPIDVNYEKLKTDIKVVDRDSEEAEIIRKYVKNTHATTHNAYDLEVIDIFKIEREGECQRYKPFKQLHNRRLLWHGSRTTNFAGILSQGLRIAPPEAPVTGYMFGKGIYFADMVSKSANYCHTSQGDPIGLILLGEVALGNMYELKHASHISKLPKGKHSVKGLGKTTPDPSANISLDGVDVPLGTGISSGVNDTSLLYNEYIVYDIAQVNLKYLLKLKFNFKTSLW
T2 sequence (Q9UGN5 whole entry): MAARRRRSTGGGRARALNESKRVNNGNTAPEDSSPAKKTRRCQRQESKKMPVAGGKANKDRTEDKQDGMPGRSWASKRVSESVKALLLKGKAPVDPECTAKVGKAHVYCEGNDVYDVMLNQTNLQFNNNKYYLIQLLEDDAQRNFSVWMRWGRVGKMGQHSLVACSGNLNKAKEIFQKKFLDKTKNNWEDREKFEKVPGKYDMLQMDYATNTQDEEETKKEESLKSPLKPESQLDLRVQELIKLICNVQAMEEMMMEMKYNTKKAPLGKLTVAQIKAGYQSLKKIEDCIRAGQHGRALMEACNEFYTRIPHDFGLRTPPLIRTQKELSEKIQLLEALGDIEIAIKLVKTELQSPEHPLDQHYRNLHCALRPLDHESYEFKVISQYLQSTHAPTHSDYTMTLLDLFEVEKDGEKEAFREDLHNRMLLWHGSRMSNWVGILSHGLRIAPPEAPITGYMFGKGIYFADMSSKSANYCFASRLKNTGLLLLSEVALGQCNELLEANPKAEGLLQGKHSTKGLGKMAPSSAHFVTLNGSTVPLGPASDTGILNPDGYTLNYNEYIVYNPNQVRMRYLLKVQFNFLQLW

As to `CN(C)Cc1ccc(-c2nc3cccc4c3n2CCNC4=O)cc1` [AG14361], the inhibition constant (Ki) in series [1] was < 5 nM.

Turning to `NC(=O)c1cccc2cn(-c3ccc([C@@H]4CCCNC4)cc3)nc12` [Niraparib, niraparib], the “Retention on PARP1/2 binding sites, in words” value (“Retention” for short) in series [2] (setting [12]) is “faster release kinetics”. Also, the “Blocking of PARPi-FL uptake” value in series [3] was “more than 50%”. Moreover, the “Effect on JHU-LX22 cell viability, in words” value in [4] is given as “much less cell killing”.

On to `O=C(c1cc(Cc2n[nH]c(=O)c3ccccc23)ccc1F)N1CCN(C(=O)C2CC2)CC1` [Olaparib, olaparib], for which the “Initial blocking (t = 1 h)” value in [5] and in series [5] (listed as olaparib) was 74% in each case. The entries for the “Blocking of [18F]PARPi tumor uptake (target engagement)” value in [6] (5 mg/kg i.v.), in series [6] (15 mg/kg i.v.) and in [6] (50 mg/kg i.v.) were 59%, 75% and 78%, respectively. The compound further showed a 50% blocking dose in [6] (single-phase decay curve fit, JHU-LX48 PDX tumor) of 3.17 mg/kg. In addition, the “Blocking of PARPi-FL uptake / target engagement, in words” value in series [3] was “most complete target engagement”. Further, the “Inhibition of PARylation (PAR signal)” value in series [7] is “nearly complete inhibition”. Besides, the “[18F]PARPi tumor uptake blocked (autoradiography)” value in series [8] is reported as 96%.

With `CNCc1ccc(-c2[nH]c3cc(F)cc4c3c2CCNC4=O)cc1` [Rucaparib, rucaparib], in series [2] (setting [12]), the “Retention” value is “longest retention”. Further, in series [3], the “Blocking of PARPi-FL uptake / target engagement, in words” value is given as “most complete target engagement”.

In the case of `C[C@]1(c2nc3c(C(N)=O)cccc3[nH]2)CCCN1` [Veliparib, veliparib], the “Retention” value in series [2] is given as “faster release kinetics”. In addition, the “Blocking of PARPi-FL uptake” value in series [3] is “more than 50%”. The “Effect on JHU-LX22 cell viability, in words” value in series [4] is recorded as “much less cell killing”.

As to `O=C(c1ccc([18F])cc1)N1CCN(C(=O)c2cc(Cc3n[nH]c(=O)c4ccccc34)ccc2F)CC1` [[^18F]PARPi], the entries for the “Muscle uptake (PET)” value in series [9] (30 min post injection), in [9] (60 min post injection) and in series [9] (120 min post injection) were 0.90 ± 0.06 %ID/g, 0.44 ± 0.03 %ID/g and 0.12 ± 0.02 %ID/g, respectively. For the same compound, the “Tumor uptake (PET)” value in [9] (30 min post injection) is recorded as 1.34 ± 0.28 %ID/g; in [9] (60 min post injection) it was 0.94 ± 0.04 %ID/g; in [9] (120 min post injection), 0.87 ± 0.21 %ID/g. Moreover, the midpoint of inhibition in [10], the IC50, lay at 0.21 nM. In addition, the Maximum tumor uptake in series [11] (tumor sizes 50-100 mm^3) came out at 2.62 ± 0.27 %ID/g; in series [11] (tumor sizes 50-1300 mm^3), 2.85 ± 0.49 %ID/g; in [11] (tumor sizes 800-1300 mm^3), 3.06 ± 0.61 %ID/g. For the same compound, in series [11] (tumor sizes 50-1300 mm^3), the “Mean tumor uptake, highest single value” was 1.24 %ID/g. In series [11] (tumor sizes 50-1300 mm^3), the “Mean tumor uptake, lowest single value” is reported as 0.47 %ID/g. Besides, the Mean tumor uptake is recorded as 0.86 ± 0.22 %ID/g in series [11] (tumor sizes 50-1300 mm^3, 2 h post injection); 0.97 ± 0.18 %ID/g in [11] (tumor sizes between 100 and 200 mm^3); 0.71 ± 0.22 %ID/g in series [11] (tumor sizes between 400 and 800 mm^3).

On to `NC(=O)c1ccc(I)c([N+](=O)[O-])c1` [iniparib], for which the “Blocking of PARPi-FL uptake / target engagement, in words” value in series [3] is “failed to reduce PARPi-FL uptake”.

As usually defined, the Ki is a measure of affinity in units of concentration, obtained from inhibition or displacement. What is called IC50 is the concentration at which inhibition is half-maximal. A higher IC50 goes with weaker potency in that assay.
